Results as given in ChEMBL document CHEMBL3045426, “Synthesis, Antiviral and Antibacterial Activities of Isatin Mannich Bases” (Med Chem Res, 2005).
Converted amounts (≈) assume the structure as drawn.

system: Vibrio cholerae; assay: Antimicrobial activity against Vibrio cholerae 01 after 18 to 20 hr by agar dilution method; assay type: functional; conditions: 1

With `COc1cc(Cc2cnc(/N=C3\C(=O)N(CN4CCN(C)CC4)c4ccc(Cl)cc43)nc2N)cc(OC)c1OC` as the compound, how does the MIC read?
Its MIC is 1.22 µg/mL (≈ 2.16 µM).

system: Priestia megaterium; assay: Antimicrobial activity against Bacillus megaterium after 18 to 20 hr by agar dilution method; assay type: functional; conditions: not given

With `COc1cc(Cc2cnc(/N=C3\C(=O)N(CN4CCN(C)CC4)c4ccc(Cl)cc43)nc2N)cc(OC)c1OC` as the compound, how does the MIC read?
The MIC was 1250 µg/mL (≈ 2210 µM).

system: Enterobacter; assay: Antimicrobial activity against Enterobacter after 18 to 20 hr by agar dilution method; assay type: functional; conditions: not given

Which MIC does the source give for `COc1cc(Cc2cnc(/N=C3\C(=O)N(CN4CCN(C)CC4)c4ccc(Cl)cc43)nc2N)cc(OC)c1OC` here?
Its MIC is 312 µg/mL (≈ 552 µM).

system: Citrobacter freundii; assay: Antimicrobial activity against Citrobacter freundii after 18 to 20 hr by agar dilution method; assay type: functional; conditions: not given

With `COc1cc(Cc2cnc(/N=C3\C(=O)N(CN4CCN(C)CC4)c4ccc(Cl)cc43)nc2N)cc(OC)c1OC` as the compound, how does the MIC read?
Its MIC is 1250 µg/mL (≈ 2210 µM).

system: Salmonella enteritidis; assay: Antimicrobial activity against Salmonella enterica subsp. enterica serovar Enteritidis after 18 to 20 hr by agar dilution method; assay type: functional; conditions: not given

For `COc1cc(Cc2cnc(/N=C3\C(=O)N(CN4CCN(C)CC4)c4ccc(Cl)cc43)nc2N)cc(OC)c1OC`, which MIC is on record?
Its MIC is 1250 µg/mL (≈ 2210 µM).

system: Salmonella typhimurium; assay: Antimicrobial activity against Salmonella enterica subsp. enterica serovar Typhimurium after 18 to 20 hr by agar dilution method; assay type: functional; conditions: not given

With `COc1cc(Cc2cnc(/N=C3\C(=O)N(CN4CCN(C)CC4)c4ccc(Cl)cc43)nc2N)cc(OC)c1OC` as the compound, how does the MIC read?
Its MIC is 1250 µg/mL (≈ 2210 µM).

system: Proteus mirabilis; assay: Antimicrobial activity against Proteus mirabilis after 18 to 20 hr by agar dilution method; assay type: functional; conditions: not given

For `COc1cc(Cc2cnc(/N=C3\C(=O)N(CN4CCN(C)CC4)c4ccc(Cl)cc43)nc2N)cc(OC)c1OC`, which MIC is on record?
The MIC was 1250 µg/mL (≈ 2210 µM).

system: Proteus vulgaris; assay: Antimicrobial activity against Proteus vulgaris after 18 to 20 hr by agar dilution method; assay type: functional; conditions: not given

For `COc1cc(Cc2cnc(/N=C3\C(=O)N(CN4CCN(C)CC4)c4ccc(Cl)cc43)nc2N)cc(OC)c1OC`, which MIC is on record?
Its MIC is 1250 µg/mL (≈ 2210 µM).

system: Edwardsiella tarda; assay: Antimicrobial activity against Edwardsiella tarda after 18 to 20 hr by agar dilution method; assay type: functional; conditions: not given

For `COc1cc(Cc2cnc(/N=C3\C(=O)N(CN4CCN(C)CC4)c4ccc(Cl)cc43)nc2N)cc(OC)c1OC`, which MIC is on record?
Its MIC is 625 µg/mL (≈ 1100 µM).

system: Escherichia coli; assay: Antimicrobial activity against Escherichia coli NCTC 10418 after 18 to 20 hr by agar dilution method; assay type: functional; conditions: not given

Which MIC does the source give for `COc1cc(Cc2cnc(/N=C3\C(=O)N(CN4CCN(C)CC4)c4ccc(Cl)cc43)nc2N)cc(OC)c1OC` here?
The MIC was 1250 µg/mL (≈ 2210 µM).

system: Salmonella typhi; assay: Antimicrobial activity against Salmonella enterica subsp. enterica serovar Typhi after 18 to 20 hr by agar dilution method; assay type: functional; conditions: not given

With `COc1cc(Cc2cnc(/N=C3\C(=O)N(CN4CCN(C)CC4)c4ccc(Cl)cc43)nc2N)cc(OC)c1OC` as the compound, how does the MIC read?
Its MIC is 1250 µg/mL (≈ 2210 µM).

system: Salmonella paratyphi; assay: Antimicrobial activity against Salmonella enterica subsp. enterica serovar Paratyphi A after 18 to 20 hr by agar dilution method; assay type: functional; conditions: not given

Which MIC does the source give for `COc1cc(Cc2cnc(/N=C3\C(=O)N(CN4CCN(C)CC4)c4ccc(Cl)cc43)nc2N)cc(OC)c1OC` here?
The MIC was 156 µg/mL (≈ 276 µM).

system: Vibrio parahaemolyticus; assay: Antimicrobial activity against Vibrio parahaemolyticus after 18 to 20 hr by agar dilution method; assay type: functional; conditions: not given

For `COc1cc(Cc2cnc(/N=C3\C(=O)N(CN4CCN(C)CC4)c4ccc(Cl)cc43)nc2N)cc(OC)c1OC`, which MIC is on record?
The MIC was 0.61 µg/mL (≈ 1.08 µM).

system: Vibrio cholerae; assay: Antimicrobial activity against Vibrio cholerae 0139 after 18 to 20 hr by agar dilution method; assay type: functional; conditions: 139

For `COc1cc(Cc2cnc(/N=C3\C(=O)N(CN4CCN(C)CC4)c4ccc(Cl)cc43)nc2N)cc(OC)c1OC`, which MIC is on record?
The MIC was 312 µg/mL (≈ 552 µM).

system: Vibrio fluvialis; assay: Antimicrobial activity against Vibrio fluvialis after 18 to 20 hr by agar dilution method; assay type: functional; conditions: not given

For `COc1cc(Cc2cnc(/N=C3\C(=O)N(CN4CCN(C)CC4)c4ccc(Cl)cc43)nc2N)cc(OC)c1OC`, which MIC is on record?
Its MIC is 1250 µg/mL (≈ 2210 µM).

system: Vibrio mimicus; assay: Antimicrobial activity against Vibrio mimicus after 18 to 20 hr by agar dilution method; assay type: functional; conditions: not given

For `COc1cc(Cc2cnc(/N=C3\C(=O)N(CN4CCN(C)CC4)c4ccc(Cl)cc43)nc2N)cc(OC)c1OC`, which MIC is on record?
Its MIC is 1.22 µg/mL (≈ 2.16 µM).

system: Pseudomonas aeruginosa; assay: Antimicrobial activity against Pseudomonas aeruginosa after 18 to 20 hr by agar dilution method; assay type: functional; conditions: not given

Which MIC does the source give for `COc1cc(Cc2cnc(/N=C3\C(=O)N(CN4CCN(C)CC4)c4ccc(Cl)cc43)nc2N)cc(OC)c1OC` here?
The MIC was 1250 µg/mL (≈ 2210 µM).

system: Staphylococcus aureus; assay: Antimicrobial activity against Staphylococcus aureus after 18 to 20 hr by agar dilution method; assay type: functional; conditions: not given

With `COc1cc(Cc2cnc(/N=C3\C(=O)N(CN4CCN(C)CC4)c4ccc(Cl)cc43)nc2N)cc(OC)c1OC` as the compound, how does the MIC read?
The MIC was 1250 µg/mL (≈ 2210 µM).

system: Morganella morganii; assay: Antimicrobial activity against Morganella morganii after 18 to 20 hr by agar dilution method; assay type: functional; conditions: not given

Which MIC does the source give for `COc1cc(Cc2cnc(/N=C3\C(=O)N(CN4CCN(C)CC4)c4ccc(Cl)cc43)nc2N)cc(OC)c1OC` here?
Its MIC is 1250 µg/mL (≈ 2210 µM).

system: Shigella boydii; assay: Antimicrobial activity against Shigella boydii after 18 to 20 hr by agar dilution method; assay type: functional; conditions: not given

With `COc1cc(Cc2cnc(/N=C3\C(=O)N(CN4CCN(C)CC4)c4ccc(Cl)cc43)nc2N)cc(OC)c1OC` as the compound, how does the MIC read?
Its MIC is 19.5 µg/mL (≈ 34.5 µM).

system: Plesiomonas; assay: Antimicrobial activity against Plesiomonas after 18 to 20 hr by agar dilution method; assay type: functional; conditions: not given

With `COc1cc(Cc2cnc(/N=C3\C(=O)N(CN4CCN(C)CC4)c4ccc(Cl)cc43)nc2N)cc(OC)c1OC` as the compound, how does the MIC read?
The MIC was 4.88 µg/mL (≈ 8.62 µM).

system: Shigella sonnei; assay: Antimicrobial activity against Shigella sonnei after 18 to 20 hr by agar dilution method; assay type: functional; conditions: not given

With `COc1cc(Cc2cnc(/N=C3\C(=O)N(CN4CCN(C)CC4)c4ccc(Cl)cc43)nc2N)cc(OC)c1OC` as the compound, how does the MIC read?
The MIC was 1250 µg/mL (≈ 2210 µM).

system: Klebsiella pneumoniae; assay: Antimicrobial activity against Klebsiella pneumoniae after 18 to 20 hr by agar dilution method; assay type: functional; conditions: not given

With `COc1cc(Cc2cnc(/N=C3\C(=O)N(CN4CCN(C)CC4)c4ccc(Cl)cc43)nc2N)cc(OC)c1OC` as the compound, how does the MIC read?
Its MIC is 1250 µg/mL (≈ 2210 µM).

system: Klebsiella pneumoniae; assay: Antimicrobial activity against Klebsiella pneumoniae subsp. ozaenae after 18 to 20 hr by agar dilution method; assay type: functional; conditions: not given

With `COc1cc(Cc2cnc(/N=C3\C(=O)N(CN4CCN(C)CC4)c4ccc(Cl)cc43)nc2N)cc(OC)c1OC` as the compound, how does the MIC read?
Its MIC is 1250 µg/mL (≈ 2210 µM).

system: Mycobacterium tuberculosis; assay: Antimycobacterial activity against Mycobacterium tuberculosis H37Rv ATCC 27294 at 6.25 ug/ml by MABA; assay type: functional; conditions: not given

Which inhibition at 6.25 µg/mL does the source give for `COc1cc(Cc2cnc(/N=C3\C(=O)N(CN4CCN(C)CC4)c4ccc(Cl)cc43)nc2N)cc(OC)c1OC` here?
The inhibition at 6.25 µg/mL was 35%.

system: not listed separately; assay: Cytotoxicity against Homo sapiens (human) HuH7 cells assessed as cell growth at 50 ug/ml after 3 days by Neutral red assay; assay type: cell-based, Huh-7; conditions: read-out: Activity

For `COc1cc(Cc2cnc(/N=C3\C(=O)N(CN4CCN(C)CC4)c4ccc(Cl)cc43)nc2N)cc(OC)c1OC`, which viability at 72 h, 50 ug/ml is on record?
The viability at 72 h, 50 ug/ml was 83%.

system: not listed separately; assay: Cytotoxicity against Homo sapiens (human) CEM cells after 5 days by MTT assay; assay type: cell-based; conditions: CEM cells (CCRF-CEM)

For `COc1cc(Cc2cnc(/N=C3\C(=O)N(CN4CCN(C)CC4)c4ccc(Cl)cc43)nc2N)cc(OC)c1OC`, which CC50 at 120 h is on record?
The CC50 at 120 h was 88 µg/mL (≈ 155 µM).

system: Human immunodeficiency virus 1; assay: Antiviral activity against Human immunodeficiency virus 1 IIIB infected CEM cells assessed as protection against viral infection after 6 days by XTT assay; assay type: functional, CCRF-CEM; set-up: concentration or dose not given beside the values; conditions: not given

Which Activity does the source give for `COc1cc(Cc2cnc(/N=C3\C(=O)N(CN4CCN(C)CC4)c4ccc(Cl)cc43)nc2N)cc(OC)c1OC` here?
The Activity was 21.09%.

system: Human immunodeficiency virus 1; assay: Antiviral activity against Human immunodeficiency virus 1 IIIB infected CEM cells assessed as inhibition of virus-induced cytopathicity after 6 days by XTT assay; assay type: functional, organism-based; conditions: CCRF-CEM, 144 h

For `COc1cc(Cc2cnc(/N=C3\C(=O)N(CN4CCN(C)CC4)c4ccc(Cl)cc43)nc2N)cc(OC)c1OC`, which EC50 is on record?
The EC50 was greater than 88 µg/mL.

system: not listed separately; assay: Cytotoxicity against Homo sapiens (human) MT4 cells after 5 days by MTT assay; assay type: cell-based; conditions: not given

Which CC50 at 120 h does the source give for `COc1cc(Cc2cnc(/N=C3\C(=O)N(CN4CCN(C)CC4)c4ccc(Cl)cc43)nc2N)cc(OC)c1OC` here?
Its CC50 at 120 h is 80.7 µg/mL (≈ 143 µM).

system: Human immunodeficiency virus 1; assay: Antiviral activity against Human immunodeficiency virus 1 IIIB infected MT4 cells assessed as inhibition of virus-induced cytopathicity after 5 days by MTT assay; assay type: functional, organism-based; conditions: MT4, 120 h

For `COc1cc(Cc2cnc(/N=C3\C(=O)N(CN4CCN(C)CC4)c4ccc(Cl)cc43)nc2N)cc(OC)c1OC`, which EC50 is on record?
The EC50 was greater than 80.7 µg/mL.

system: Hepatitis C virus; assay: Antiviral activity against Hepatitis C virus BM4-5 infected in Huh7 cells assessed as inhibition of viral RNA replication by phosphor screening method; assay type: functional, Hepacivirus hominis, Huh-7; conditions: not given

With `COc1cc(Cc2cnc(/N=C3\C(=O)N(CN4CCN(C)CC4)c4ccc(Cl)cc43)nc2N)cc(OC)c1OC` as the compound, how does the “inhibition (INH)” value read?
Its value is 71%.

system: Human immunodeficiency virus 1; assay: Antiviral activity against Human immunodeficiency virus 1 IIIB infected MT4 cells assessed as protection against viral infection after 5 days by MTT assay; assay type: functional; set-up: concentration or dose not given beside the values; conditions: not given

Which Activity does the source give for `COc1cc(Cc2cnc(/N=C3\C(=O)N(CN4CCN(C)CC4)c4ccc(Cl)cc43)nc2N)cc(OC)c1OC` here?
The Activity was 48.6%.
